# Measured values: article PMC12867150, “A fungi-derived cyclic peptide enhances Th9-mediated antitumor immunity by targeting ZAP70 and SREBP1” (The Journal of Clinical Investigation, 2025)
# Values joined by “and” are separate entries in the source; they are usually repeats but may differ in a detail not shown here. Equal values may be shown once. Where a name gives a salt, the structure may show the parent alone.
# What was measured:
# [1] = system: PD-1 on Th9 cells; test: Flow cytometry of PD-1 on Th9 cells in vitro (Figure 5K, 7E, S3D); assay type: cell-based, mouse; conditions: for PD-1 expression: result in words; for PD1 (flow cytometric quantification): Figure 5K, (n = 5); for PD1 (flow cytometric quantification) / PD-1 expression in Th9 cells: individual replicates; for PD-1 expression in Th9 cells: Figure 7E, one per column (n = 4); for Expression of PD-1 in Th9: Supplemental Figure 3D
# Description: Naive CD4^+ T cells were isolated from the spleens of C57BL/6J or CD45.1^+ OT-II mice using the MojoSort Mouse CD4 Naive T Cell Isolation Kit (BioLegend, catalog 480040), following the manufacturer’s protocol. Purified cells were cultured in RPMI-1640 medium supplemented with 10% FBS, 1% penicillin-streptomycin, and 0.1% β-mercaptoethanol (Gibco, catalog 21985023).
# T cell polarization was initiated under plate-bound anti-CD3 (2 μg/mL, clone 17A2, BioXCell, catalog BE0002) and soluble anti-CD28 (1 μg/mL, clone 37.51, BioXCell, catalog BE0015-1) stimulation, with the addition of cytokines and neutralizing antibodies specific to each subset. For Th9 cells, these included IL-4 (10 ng/mL, Peprotech, catalog 400-04), TGF-β (1 ng/mL, EPOTO Biotech, catalog HF-2021), anti–IL-12 (5 μg/mL, clone C17.8, BioXCell, catalog BE0051), and anti–IFN-γ (10 μg/mL, clone XMG1.2, BioXCell, catalog BE0055); for Th1 cells, these included IL-12 (10 ng/mL, GenScript, catalog Z03211-50) and anti–IL-4 (5 μg/mL, clone 11B11, BioXCell, catalog BE0045); for Th2 cells, these included IL-4 (50 ng/mL), anti–IFN-γ (20 μg /mL), anti–IL-12 (5 μg/mL), Th17 cells: IL-6 (20 ng/mL, EPOTO Biotech, catalog MF-1006), TGF-β (1 ng/mL), IL-1β (10 ng/mL, Peprotech, catalog AF-211-11B), anti–IFN-γ (10 μg/mL), anti–IL-12 (5 μg/mL), and anti–IL-4 (5 μg/mL); and for Tregs, these included TGF-β (3 ng/mL). After 3 days of initial culture, cells were either collected for downstream assays or continued in extended culture with refreshed cytokines to maintain lineage commitment.
# Details regarding staining panels (human and mouse), reagents (including clones and catalog numbers), acquisition settings, compensation/controls, and analysis procedures are provided in Supplemental Methods.
# BioLegend, Cat. No. 422301 or Mouse TruStain FcX™, BioLegend, Cat. No. 101319) for 10 minutes at 4°C. For surface marker detection, cells were stained with fluorochrome-conjugated monoclonal antibodies in 96-well V-bottom plates and incubated on ice for 30 minutes. After staining, cells were washed twice and resuspended in FACS buffer for analysis.
# Prior to intracellular cytokine staining, cells were restimulated for 4 hours with PMA (Absin, Cat. No. abs9107), ionomycin (Sigma-Aldrich, Cat. No. I0634), and brefeldin A (MedChemExpress, Cat. No. HY-16592). For intracellular cytokine staining, cells were first surface-stained as described above, then fixed and permeabilized using the BD Cytofix/Cytoperm™ kit (BD Biosciences, Cat. No. 554714) according to the manufacturer ’s protocol. Intracellular proteins were stained with directly conjugated antibodies targeting IL-9, IL-17a, IL-4, IFN-γ, TNF-α, FOXP3, p-ZAP70, Perforin, and […]
# Antibodies used for mouse samples included those against IL-9 (PE, clone RM9A4, Biolegend, Cat. No. 514104), IFN-γ (PE, clone XMG1.2, Biolegend, Cat. No.
# Cat. No. 103138), CD4 (APC/Cy7, clone E-AB-F1353UJ, Elabscience, Cat. No.
# AF18028), CD8α (PerCP/Cy5.5, clone E-AB-F1104UJ, Elabscience, Cat. No. […]
# clone E-AB-F1187UH, Elabscience, Cat. No. AF19854), TNF-α (BV421, clone MP6-XT22, Biolegend, Cat. No. 506328), FOXP3 (PE, clone FJK-16s, eBioscience, Cat. No.
# Perforin (APC, clone S16009A, Biolegend, Cat. No. 154303) and Granzyme B (APC, […]
# clone QA16A02, Biolegend, Cat. No. 372203). […]
# [2] = system: mitochondria of human Th9 cells; test: Mitochondrial membrane potential / mass of human Th9 cells (Figure 8D, S9B); assay type: cell-based; conditions: for mitochondrial mass using Mito Tracker in human Th9 cells: flow cytometry, Supplemental Figure 9B
# Description: For Th9 polarization, cultures were supplemented with IL-4 (10 ng/mL, PeproTech, catalog AF-200-04), TGF-β (1 ng/mL), and neutralizing anti–IFN-γ monoclonal antibody (10 μg/mL, clone B27, BioXcell, catalog BE0245). After 3 days of initial culture, cells were either collected for downstream assays or continued in extended culture with refreshed cytokines to maintain lineage commitment without antibodies. Th9 cells were collected at days 4, 5, and 6 for subsequent in vitro assays. For adoptive transfer studies, day 4–cultured Th9 cells were washed and prepared for intravenous injection.
# Mitochondrial mass and membrane potential were assessed using MitoTracker™ Deep Red FM (Thermo Fisher Scientific, catalog M22426) and TMRM (tetramethylrhodamine methyl ester; Macklin, catalog T868125), respectively, following the manufacturers’ protocols. Cells were incubated with the respective dyes, washed, and subjected to flow cytometry or fluorescence microscopy analysis. For ultrastructural assessment, mitochondrial number and diameter were quantified from high-resolution transmission electron microscopy (TEM) images using ImageJ software.
# [3] = system: mitochondria of Th9 cells; test: Flow cytometry with MitoTracker Deep Red (Figure 4M, 5L, 7F, 7J); assay type: cell-based, mouse; conditions: for Mito tracker (flow cytometric quantification): Figure 5L; for Mito tracker (flow cytometric quantification) / mitochondrial membrane potential measured by MitoTracker staining: (n = 3); for mitochondrial membrane potential measured by MitoTracker staining: Figure 7F; for mitochondrial membrane potential in Th9 cells: Figure 7J, one per column (n = 4)
# Description: […] Cells were incubated with the respective dyes, washed, and subjected to flow cytometry or fluorescence microscopy analysis. For ultrastructural assessment, mitochondrial number and diameter were quantified from high-resolution transmission electron microscopy (TEM) images using ImageJ software.
# [4] = single agent, individual replicates
compound,measurement,setting,value
anteiso-C15 Leu7 surfactin [EpA],PD-1 expression,[1]; EpA-Th9 cells in vitro,increased PD-1 expression
same,PD1 (flow cytometric quantification),[1]; EpA + ERKin combination,205 and 196 and 199 and 194 and 192
same,PD1 (flow cytometric quantification),[1]; EpA + MEKin combination,163 and 169 and 166 and 170 and 159
same,PD1 (flow cytometric quantification),[1]; single agent,986 and 1657 and 450 and 878 and 1491
same,PD-1 expression in Th9 cells,[1]; EpA (10 µM) + Fatostatin (10 µM),424 and 342 and 382 and 324
same,PD-1 expression in Th9 cells,"[1]; single agent, 10 µM",366 and 370 and 368 and 374
same,Expression of PD-1 in Th9,[1]; replicate 1,836
same,Expression of PD-1 in Th9,[1]; replicate 2,830
same,Expression of PD-1 in Th9,[1]; replicate 3,871
same,Expression of PD-1 in Th9,[1]; replicate 4,812
same,Expression of PD-1 in Th9,[1]; replicate 5,848
same,Expression of PD-1 in Th9,[1]; replicate 6,842
same,PD-1 expression,[1]; fatostatin alone or with EpA,not further increased in EpA-Th9 cells treated with fatostatin
same,mitochondrial mass using Mito Tracker in human Th9 cells,[2]; replicate 1,2.888 ×10^5
same,mitochondrial mass using Mito Tracker in human Th9 cells,[2]; replicate 2,2.867 ×10^5
same,mitochondrial mass using Mito Tracker in human Th9 cells,[2]; replicate 3,2.9 ×10^5
same,"mitochondrial membrane potential, human Th9",[2]; result in words,increased mitochondrial membrane potential
same,MitoTracker Deep Red,"[3]; Figure 4M, individual replicates, (n = 5)",2580000 and 2400000 and 2450000 and 2490000 and 2480000
same,Mito tracker (flow cytometric quantification),"[3]; EpA + ERKin combination, individual replicates",2055 and 2045 and 2104
same,Mito tracker (flow cytometric quantification),"[3]; EpA + MEKin combination, individual replicates",2331 and 2453 and 2355
same,Mito tracker (flow cytometric quantification),[3]; [4],1845 and 1728 and 1865
same,mitochondrial membrane potential measured by MitoTracker staining,"[3]; EpA + Fato combination, individual replicates",1707 and 1737 and 1699
same,mitochondrial membrane potential measured by MitoTracker staining,[3]; [4],1400 and 1434 and 1409
same,mitochondrial membrane potential in Th9 cells,"[3]; MigR1 vector, individual replicates",5844 and 5817 and 5963 and 6149
same,mitochondrial membrane potential in Th9 cells,"[3]; Srebf1 (overexpressing SREBP1), individual replicates",5503 and 5279 and 5218 and 5340
same,mitochondrial membrane potential,"[3]; MEK/ERK inhibition in EpA-treated Th9 cells, MitoTracker, result in words",paradoxical increase in mitochondrial membrane potential
same,mitochondrial membrane potential,"[3]; SREBP1 inhibition (fatostatin) in EpA-Th9, result in words",further augmented
same,EpA-induced mitochondrial membrane potential upon SREBP1 overexpression,[3]; result in words,abolished
same,mitochondrial integrity,[3]; result in words,improved mitochondrial integrity
"CCCc1cc(-c2nc(-c3ccc(C)cc3)cs2)ccn1 [fatostatin, fatostatin hydrobromide, reference compound]",PD-1 expression in Th9 cells,"[1]; single agent, 10 µM",384 and 402 and 369 and 372
same,PD-1 expression,[1]; fatostatin alone or with EpA,induced PD-1 upregulation in control Th9 cells
same,"mitochondrial membrane potential, human EpA-Th9","[2]; with fatostatin, result in words",further augmented
same,mitochondrial membrane potential measured by MitoTracker staining,[3]; [4],1160 and 1151 and 1173
